Assay results published in ChEMBL document CHEMBL5058564, “EUbOPEN Chemogenomics Library 2 (Incucyte)” (2022).

How the values were obtained:
Assay type in all cases: toxicity, cell-based
HEK-293T = experiment: Incucyte cell viability with HEK293T; conditions: human, 10 µM, compound concentration 10 uM
Fibroblast = experiment: Incucyte cell viability with human fibroblast; conditions: 10 µM, compound concentration 10 uM
U2OS = experiment: Incucyte cell viability with U2OS; conditions: human, 10 µM, compound concentration 10 uM
[1] = 0 h, replicate number 1, timepoint 0 hours
[2] = 12 h, replicate number 1, timepoint 12 hours
[3] = 18 h, replicate number 1, timepoint 18 hours
[4] = 24 h, replicate number 1, timepoint 24 hours
[5] = 12 h, replicate number 2, timepoint 12 hours
[6] = 18 h, replicate number 2, timepoint 18 hours
[7] = 24 h, replicate number 2, timepoint 24 hours
[8] = 0 h, replicate number 2, timepoint 0 hours
[9] = 6 h, replicate number 1, timepoint 6 hours
[10] = 6 h, replicate number 2, timepoint 6 hours
Note: unitless GR value; below 1 slowed growth and below 0 cell loss.

## CN(C)C(=O)Cn1cc(-c2ccc(-c3cncc4ccccc34)cc2)cn1
HEK-293T; [1]
  Growth Rate: 0.84
HEK-293T; [2]
  Growth Rate: 0.97
HEK-293T; [3]
  Growth Rate: 0.9
HEK-293T; [4]
  Growth Rate: 0.9
Fibroblast; [2]
  Growth Rate: 0.27
Fibroblast; [5]
  Growth Rate: 1
Fibroblast; [3]
  Growth Rate: 0.21
Fibroblast; [6]
  Growth Rate: 0.82
Fibroblast; [4]
  Growth Rate: 0.05
Fibroblast; [7]
  Growth Rate: 0.61
U2OS; [1]
  Growth Rate: -0.34
U2OS; [8]
  Growth Rate: 0.27
U2OS; [9]
  Growth Rate: 0.31
U2OS; [10]
  Growth Rate: 0.79
U2OS; [2]
  Growth Rate: 0.43
U2OS; [5]
  Growth Rate: 0.74
U2OS; [3]
  Growth Rate: 0.59
U2OS; [6]
  Growth Rate: 0.76
U2OS; [4]
  Growth Rate: 0.7
U2OS; [7]
  Growth Rate: 0.86

## CN[C@@H]1CCc2[nH]c3ccc(C(N)=O)cc3c2C1.O.O=C(O)CCC(=O)O [FROVATRIPTAN SUCCINATE]
HEK-293T; [1]
  Growth Rate: -0.07
HEK-293T; [8]
  Growth Rate: 0.02
HEK-293T; [10]
  Growth Rate: 0.9
HEK-293T; [6]
  Growth Rate: 0.94
HEK-293T; [4]
  Growth Rate: 0.98
HEK-293T; [7]
  Growth Rate: 0.82
Fibroblast; [9]
  Growth Rate: 0.36
Fibroblast; [3]
  Growth Rate: 0.81
Fibroblast; [4]
  Growth Rate: 0.66
U2OS; [1]
  Growth Rate: -0.34
U2OS; [8]
  Growth Rate: 0.89
U2OS; [9]
  Growth Rate: 0.73
U2OS; [2]
  Growth Rate: 0.48
U2OS; [3]
  Growth Rate: 0.74
U2OS; [4]
  Growth Rate: 0.63

## O=C(Nc1cc(-c2cn[nH]c2)ccc1N1CCOCC1)c1ccc(-c2ccc3ncccc3c2)o1
HEK-293T; [8]
  Growth Rate: 0.28
HEK-293T; [9]
  Growth Rate: -0.01
HEK-293T; [10]
  Growth Rate: 0.26
HEK-293T; [2]
  Growth Rate: -0.14
HEK-293T; [5]
  Growth Rate: 0.02
HEK-293T; [3]
  Growth Rate: 0
HEK-293T; [6]
  Growth Rate: 0.07
HEK-293T; [4]
  Growth Rate: 0.15
HEK-293T; [7]
  Growth Rate: 0.04
Fibroblast; [1]
  Growth Rate: 0.62
Fibroblast; [8]
  Growth Rate: -0.67
Fibroblast; [2]
  Growth Rate: 0.82
Fibroblast; [5]
  Growth Rate: 0.89
Fibroblast; [3]
  Growth Rate: 0.43
Fibroblast; [6]
  Growth Rate: 0.89
Fibroblast; [4]
  Growth Rate: 0.3
Fibroblast; [7]
  Growth Rate: 0.83
U2OS; [1]
  Growth Rate: 0.53
U2OS; [9]
  Growth Rate: 0.9
U2OS; [2]
  Growth Rate: 0.6
U2OS; [3]
  Growth Rate: 0.57
U2OS; [6]
  Growth Rate: 0.39
U2OS; [4]
  Growth Rate: 0.7
U2OS; [7]
  Growth Rate: 0.26

## CCNC(=O)[C@H]1O[C@@H](n2cnc3c(N)ncnc32)[C@H](O)[C@@H]1O.O
HEK-293T; [1]
  Growth Rate: -0.1
HEK-293T; [8]
  Growth Rate: -0.27
HEK-293T; [9]
  Growth Rate: 0.74
HEK-293T; [2]
  Growth Rate: 0.85
HEK-293T; [3]
  Growth Rate: 0.8
HEK-293T; [4]
  Growth Rate: 0.76
HEK-293T; [7]
  Growth Rate: 0.81
Fibroblast; [1]
  Growth Rate: -0.1
Fibroblast; [8]
  Growth Rate: 0.3
Fibroblast; [10]
  Growth Rate: 0.46
Fibroblast; [5]
  Growth Rate: 0.87
U2OS; [1]
  Growth Rate: -0.43
U2OS; [9]
  Growth Rate: 0.86
U2OS; [2]
  Growth Rate: 0.61
U2OS; [3]
  Growth Rate: 0.71
U2OS; [4]
  Growth Rate: 0.74
